Reference: US20230227484A1, “PYRIMIDINE COMPOUND AS AXL INHIBITOR” (NANJING CHIA TAI TIANQING PHARMACEUTICAL CO., LTD., priority 2020, published 2023)

Experiments:
[1] = system: MV-4-11 (human myeloid monocytic leukemia cell line); assay: Proliferation inhibition activity of compounds to MV-4-11 cells (CellTiter-Glo); assay type: cell-based; settings: MV4-11 cells, 72 h dosing
How it was run: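 MV-4-11 cells, plated 24 h earlier, were exposed 72 h to compounds in 10-point 3-fold dilutions (0.5% DMSO final). Viability read by CellTiter-Glo luminescence; inhibition normalized to blank and untreated controls, IC50 from variable-slope log(inhibitor)-response fit.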

[2] = Pharmacokinetic study of compounds on ICR mice; assay type: in vivo; settings: mouse, po, male ICR mice, plasma; for Cmax / Tmax / half-life: 10 mg-kg^1 by gavage; for AUC(0-t): 10 mg/kg-kg^1 by gavage, read-out: AUC0-24
Procedure: Each compound is prepared with DMSO into a 10 mg/mL stock solution.
Preparation of mixed solvent: Tween 80: PEG400: Water=1:9:90 (v/v/v)
450 μl of the compound DMSO stock solution with a concentration of 10 mg/nmL is accurately sucked into a glass bottle, and added with an appropriate volume of DMSO and mixed solvent, wherein a ratio of the solvent in the final formulation is DMSO: mixed solvent (v/v)=10:90. The mixed solution is vortexed (or ultrasonically treated), and dispersed uniformly to obtain 4.5 mL. administration test solutions with a concentration of 1 mg/nL, respectively.
Male 6-10 week old ICR mice (sourced from: Beijing Vital River Laboratory Animal Technology Co., Ltd.) are taken, 6 mice in each group. The mice are fasted overnight and fed 4 h after the administration. On the day of the experiment, the mice are administrated with 10 mg-kg^1 of compound test solution by gavage. After administration, about 100 μL of blood is harvested from the orbits of the mice at 0 min, 5 mmn, 15 mmn, 30 min, 14 h 2 h, 4 h, 8 h, and 24 h, and placed in EDTA-K2 anticoagulant tubes. The whole blood sample is centrifuged at 1500 to 1600 g for 10 mm, and the plasma obtained by separation is stored in a refrigerator at −40 to −20° C. for biological sample analysis. The blood drug concentration is determined by an LC-MS/MS method.
A non-compartmental model in Pharsight Phoenix 7.0 is used to calculate pharmacokinetic parameters. The specific results are shown in 5 the table below.

IC50 [1] [nM]	Cmax [2] [ng/mL]	Tmax [2] [h]	half-life [2] [h]	AUC(0-t) [2] [ng·h/mL]	SMILES
5.49	349	0.25	3.33	1000	CP(C)(=O)c1ccccc1Nc1nc(Nc2ccc3c(c2)CC[C@@H](N2CCCC2)CC3)ncc1Cl [Example 10, (S)-(2-((5-chloro-2-((7-(pyrrolidin-1-yl)-6,7,8,9-tetrahydro-5H-benzo[7]annulen-2-yl)amino)pyrimidin-4-yl)amino)phenyl)dimethyl phosphine oxide]
1.6	342	1	3.05	3540	CNC(=O)c1cc(F)ccc1Nc1nc(Nc2ccc3c(c2)CC[C@@H](N2CCCC2)CC3)ncc1Cl [Example 19, (S)-2-((5-chloro-2-((7-(pyrrolidin-1-yl)-6,7,8,9-tetrahydro-5H-benzo[7]annulen-2-yl)amino)pyrimidin-4-yl)amino)-5-fluoro-N-methylhenzamide]
5.24	69	1	2.06	307	CP(C)(=O)c1c(Nc2nc(Nc3ccc4c(c3)CC[C@@H](N3CCCC3)CC4)ncc2Cl)ccc2nccnc12 [Example 47, (S)-(6-((5-chloro-2-((7-(pyrrolidin-1-yl)-6,7,8,9-tetrahydro-5H-benzo[7]annulen-2-yl)amino)pyrimidin-4-yl)amino)quinoxalin-5-yl)dimethyl phosphine oxide]
6.61	676	1	1.81	2200	Cc1ccc(Nc2nc(Nc3ccc4c(c3)CC[C@@H](N3CCCC3)CC4)ncc2Cl)c(P(C)(C)=O)c1 [Example 53, (S)-(2-((5-chloro-2-((7-(pyrrolidin-1-yl)-6,7,8,9-tetrahydro-5H-benzo[7]annulen-2-yl)amino)pyrimidin-4-yl)amino)-5-methylphenyl) dimethyl phosphine oxide]

SMILES	IC50 [1] [nM]	Cmax [2] [ng/mL]	Tmax [2] [h]	half-life [2] [h]	AUC(0-t) [2] [ng·h/mL]
COCc1ccc(Nc2nc(Nc3ccc4c(c3)CC[C@@H](N3CCCC3)CC4)ncc2Cl)c(P(C)(C)=O)c1 [Example 115, (S)-(2-((5-chloro-2-((7-(pyrrolidin-1-yl)-6,7,8,9-tetrahydro-5H-benzo[7]annulen-2-yl)amino)pyrimidin-4-yl)amino)-5-(methoxymethyl)phenyl)dimethylphosphine oxide]	6.97	324	2.17	–	1300
